In US9555039B2, “Piperidine derivatives and compositions for the inhibition of nicotinamide phosphoribosyltransferase (NAMPT)” (Forma TM, LLC., priority 2011, dated 2017) one finds IC50 data, which are given here for 24 molecules.

As a reminder, the IC50 is the concentration that inhibits the measured activity by half.

Test [1] concerns the target T1, Recombinant His-tagged NAMPT (Homo sapiens, UniProt P43490).
T1 construct: His; host or cells: E. coli
In words: Biochemical inhibition assay: NAMPT enzymatic reaction, NMN quantified by mass spectrometry. The note with it: 33 nM NAMPT, 1 μM NAM, 100 μM PRPP, 2.5 mM ATP, 30 minutes at room temperature; read-out: Biochem IC50. Summed up:
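Reaction 30 min at room temperature with 1 μM NAM, 100 μM PRPP, 2.5 mM ATP (final), quenched with formic acid. NMN quantified by RapidFire electrospray MS, normalized to L-cystathionine; IC50 from percent inhibition versus DMSO.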

A further test concerns A2780 cells. Kind of test: In-vitro cell proliferation assay (SRB, 72 hours). The class given is cell-based. The note with it: Homo sapiens, sulforhodamine B (SRB) assay. Put shortly: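 Viable cells measured by TCA fixation and SRB staining, absorbance 570 nm; % inhibition vs DMSO control after media-only background subtraction, interpolated between two bracketing concentrations.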

T1 sequence (P43490 whole entry): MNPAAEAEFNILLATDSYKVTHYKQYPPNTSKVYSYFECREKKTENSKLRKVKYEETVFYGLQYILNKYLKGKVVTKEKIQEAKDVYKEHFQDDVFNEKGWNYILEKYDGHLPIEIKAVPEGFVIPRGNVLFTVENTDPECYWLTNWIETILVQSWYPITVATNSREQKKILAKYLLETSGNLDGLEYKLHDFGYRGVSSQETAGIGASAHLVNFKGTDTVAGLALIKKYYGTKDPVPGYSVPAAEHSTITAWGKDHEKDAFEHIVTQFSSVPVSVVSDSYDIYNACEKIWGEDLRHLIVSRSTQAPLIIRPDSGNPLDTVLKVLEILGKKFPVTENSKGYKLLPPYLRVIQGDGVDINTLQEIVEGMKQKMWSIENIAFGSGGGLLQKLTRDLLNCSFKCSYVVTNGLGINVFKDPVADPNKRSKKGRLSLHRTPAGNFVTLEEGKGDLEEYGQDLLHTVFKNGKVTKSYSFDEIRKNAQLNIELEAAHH

Turning to `O=C(NCCCCC1CCN(C(=O)c2cc3cnccc3[nH]2)CC1)c1ccc2nccn2c1` [N-{4-[1-({1H-pyrrolo[3,2-c]pyridin-2-yl}carbonyl)piperidin-4-yl]butyl}imidazo[1,2-a]pyridine-6-carboxamide], the IC50 in test [1] was 0.0086 µM; with A2780 cells, 0.0131 µM.

For `O=C(NCCCCC1CCN(C(=O)c2ccc(F)cc2F)CC1)c1cc2ccncc2s1` [N-(4-{1-[(2,4-difluorophenyl)carbonyl]piperidin-4-yl}butyl)thieno[2,3-c]pyridine-2-carboxamide], the IC50 in test [1] worked out at 0.0128 µM; with A2780 cells, 0.0135 µM.

Consider `O=C(NCCCCC1CCN(C(=O)c2cccc(Cl)c2Cl)CC1)c1cc2ccncc2s1` [N-(4-{1-[(2,3-dichlorophenyl)carbonyl]piperidin-4-yl}butyl)thieno[2,3-c]pyridine-2-carboxamide], for which the IC50 in test [1] amounted to 0.0201 µM; with A2780 cells, 0.0067 µM.

Turning to `O=C(NCCCCC1CCN(C(=O)c2cccc(F)c2)CC1)c1cc2cnccc2[nH]1` [N-(4-{1-[(3-fluorophenyl)carbonyl]piperidin-4-yl}butyl)-1H-pyrrolo[3,2-c]pyridine-2-carboxamide], the IC50 is 0.0164 µM in test [1] and 0.0033 µM with A2780 cells.

For the molecule `O=C(NCCCCC1CCN(C(=O)c2ccc(C(F)(F)F)cn2)CC1)c1cc2cnccc2[nH]1` [N-[4-(1-{[5-(trifluoromethyl)pyridin-2-yl]carbonyl}piperidin-4-yl)butyl]-1H-pyrrolo[3,2-c]pyridine-2-carboxamide], the results for the concentration for half-maximal inhibition (IC50) (in test [1]; with A2780 cells) were 0.137 µM and 0.0596 µM, respectively.

For `O=C(NCCCCC1CCN(C(=O)c2ccc(N3CCOCC3)nc2)CC1)c1cc2ccncc2s1` [N-[4-(1-{[6-(morpholin-4-yl)pyridin-3-yl]carbonyl}piperidin-4-yl)butyl]thieno[2,3-c]pyridine-2-carboxamide], the IC50 was found to be 0.0301 µM in test [1] and 0.0131 µM in the test with A2780 cells.

For the molecule `COc1cc(Cl)ccc1C(=O)N1CCC(CCCCNC(=O)c2ccc3nccn3c2)CC1` [N-(4-{1-[(4-chloro-2-methoxyphenyl)carbonyl]piperidin-4-yl}butyl)imidazo[1,2-a]pyridine-6-carboxamide], the IC50 came to 0.0806 µM in test [1] and 0.027 µM in the test on A2780 cells.

For the molecule `O=C(NCCCCC1CCN(C(=O)c2cnc(C(F)(F)F)nc2)CC1)c1cc2ccncc2s1` [N-[4-(1-{[2-(trifluoromethyl)pyrimidin-5-yl]carbonyl}piperidin-4-yl)butyl]thieno[2,3-c]pyridine-2-carboxamide], the IC50 was 0.158 µM in test [1] and 0.1 to 1 µM in the test on A2780 cells.

In the case of `O=C(NCCCCC1CCN(C(=O)c2ccc(F)cn2)CC1)c1ccc2nccn2c1` [N-(4-{1-[(5-fluoropyridin-2-yl)carbonyl]piperidin-4-yl}butyl)imidazo[1,2-a]pyridine-6-carboxamide], the values for the IC50 (in test [1]; with A2780 cells) were 0.074 µM and 0.0679 µM, respectively.

As to `CC(C)c1ncoc1C(=O)N1CCC(CCCCNC(=O)c2cc3cnccc3[nH]2)CC1` [N-[4-(1-{[4-(propan-2-yl)-1,3-oxazol-5-yl]carbonyl}piperidin-4-yl)butyl]-1H-pyrrolo[3,2-c]pyridine-2-carboxamide], the IC50 in test [1] stood at 0.0304 µM; in the test on A2780 cells it was 0.0053 µM.

Consider `Cc1cccc(C(=O)N2CCC(CCCCNC(=O)c3cc4cnccc4[nH]3)CC2)c1F` [N-(4-{1-[(2-fluoro-3-methylphenyl)carbonyl]piperidin-4-yl}butyl)-1H-pyrrolo[3,2-c]pyridine-2-carboxamide], for which the IC50 is 0.0475 µM in test [1] and 0.0069 µM in the test on A2780 cells.

With `COc1ccc(C(=O)N2CCC(CCCCNC(=O)c3ccc4nccn4c3)CC2)c(OC)c1` [N-(4-{1-[(2,4-dimethoxyphenyl)carbonyl]piperidin-4-yl}butyl)imidazo[1,2-a]pyridine-6-carboxamide], the IC50 was 0.0222 µM in test [1] and 0.0033 µM in the test with A2780 cells.

In the case of `COc1cccc(C(=O)N2CCC(CCCCNC(=O)c3cc4cnccc4[nH]3)CC2)c1OC` [N-(4-{1-[(2,3-dimethoxyphenyl)carbonyl]piperidin-4-yl}butyl)-1H-pyrrolo[3,2-c]pyridine-2-carboxamide], the IC50 was 0.0208 µM in test [1] and 0.0019 µM with A2780 cells.

As for `O=C(NCCc1ccc(-c2ccccc2)cc1)c1cc2cnccc2[nH]1` [N-[2-(4-phenylphenyl)ethyl]-1H-pyrrolo[3,2-c]pyridine-2-carboxamide], the IC50 in test [1] stood at 0.126 µM; with A2780 cells, 3.98 µM.

On to `Cc1ncsc1C(=O)N1CCC(CCCCNC(=O)c2ccc3nccn3c2)CC1` [N-(4-{1-[(4-methyl-1,3-thiazol-5-yl)carbonyl]piperidin-4-yl}butyl)imidazo[1,2-a]pyridine-6-carboxamide], for which the IC50 in test [1] turned out to be 0.0029 µM; with A2780 cells, 0.0008 µM.

Consider `O=C(NCCCCC1CCN(C(=O)c2cc3ccccc3[nH]2)CC1)c1cc2ccncc2s1` [N-(4-{1-[(1H-indol-2-yl)carbonyl]piperidin-4-yl}butyl)thieno[2,3-c]pyridine-2-carboxamide], for which the IC50 in test [1] was 0.0335 µM; in the test with A2780 cells it was 0.1 to 1 µM.

`COc1ccc(S(=O)(=O)N2CCC(CCCCNC(=O)c3cc4cnccc4[nH]3)CC2)c(OC)c1` [N-(4-{1-[(2,4-dimethoxybenzene)sulfonyl]piperidin-4-yl}butyl)-1H-pyrrolo[3,2-c]pyridine-2-carboxamide]: the half-maximal inhibitory concentration (IC50) was determined as 0.0191 µM in test [1] and 0.0017 µM with A2780 cells.

As to `O=C(NCCCCC1CCN(C(=O)c2ccc(-n3cccn3)cc2)CC1)c1cc2cnccc2[nH]1` [N-[4-(1-{[4-(1H-pyrazol-1-yl)phenyl]carbonyl}piperidin-4-yl)butyl]-1H-pyrrolo[3,2-c]pyridine-2-carboxamide], the results for the IC50 (in test [1]; with A2780 cells) were 0.0507 µM and 0.0136 µM, respectively.

In the case of `O=C(NCCCCC1CCN(C(=O)c2ccc(Cl)cc2Cl)CC1)c1ccc2nccn2c1` [N-(4-{1-[(2,4-dichlorophenyl)carbonyl]piperidin-4-yl}butyl)imidazo[1,2-a]pyridine-6-carboxamide], the figures for the IC50 (in test [1]; with A2780 cells) were 0.0357 µM and 0.0144 µM, respectively.

`Cn1ccc(S(=O)(=O)N2CCC(CCCCNC(=O)c3cc4cnccc4[nH]3)CC2)n1` [N-{4-[1-(1-methyl-1H-pyrazole-3-sulfonyl)piperidin-4-yl]butyl}-1H-pyrrolo[3,2-c]pyridine-2-carboxamide]: the results for the IC50 (in test [1]; in the test on A2780 cells) were 0.0495 µM and 0.0068 µM, respectively.

`O=C(NCCCCC1CCN(C(=O)c2ccccn2)CC1)c1cc2cnccc2[nH]1` [N-(4-{1-[(pyridin-2-yl)carbonyl]piperidin-4-yl}butyl)-1H-pyrrolo[3,2-c]pyridine-2-carboxamide]: the IC50 is 0.0306 µM in test [1] and 0.0063 µM in the test on A2780 cells.

Take `O=C(NCCCCC1CCN(C(=O)c2ccc(Cl)cc2Cl)CC1)c1cc2cnccc2[nH]1` [N-(4-{1-[(2,4-dichlorophenyl)carbonyl]piperidin-4-yl}butyl)-1H-pyrrolo[3,2-c]pyridine-2-carboxamide]: the results for the IC50 (in test [1]; in the test on A2780 cells) were 0.07 µM and 0.012 µM, respectively.

Regarding `O=C(NCCCCC1CCN(C(=O)c2ccc(-n3cccn3)cc2)CC1)c1cc2ccncc2s1` [N-[4-(1-{[4-(1H-pyrazol-1-yl)phenyl]carbonyl}piperidin-4-yl)butyl]thieno[2,3-c]pyridine-2-carboxamide], the values for the IC50 (in test [1]; in the test on A2780 cells) were 0.0481 µM and 0.1 to 1 µM, respectively.

For the molecule `O=C(NCCCCCCOc1ccc(Cl)cc1)c1ccc2ncccc2c1` [N-[6-(4-chlorophenoxy)hexyl]quinoline-6-carboxamide], the figures for the IC50 (in test [1]; with A2780 cells) were 0.0259 µM and 9.89 µM, respectively.
